Measurements: ChEMBL document CHEMBL4477261, “Design, synthesis and evaluation of the multidrug resistance-reversing activity of pyridine acid esters of podophyllotoxin in human leukemia cells” (Bioorg Med Chem Lett, 2016)
pIC50: −log10 of the molar value. The source made the active and inactive calls. The rule behind the calls is not given here.

Tests used:
[1] = target: T1, Mitogen-activated protein kinase; ERK1/ERK2 (Homo sapiens) (UniProt P27361+P28482); experiment: Activation of ERK1/2 signalling in human K562/ADR cells assessed as increase in cleaved caspase-9 expression at 0.05 uM after 48 hrs by Western blot analysis relative to control; assay type: cell-based
T1 sequence (P27361 whole entry, looked up): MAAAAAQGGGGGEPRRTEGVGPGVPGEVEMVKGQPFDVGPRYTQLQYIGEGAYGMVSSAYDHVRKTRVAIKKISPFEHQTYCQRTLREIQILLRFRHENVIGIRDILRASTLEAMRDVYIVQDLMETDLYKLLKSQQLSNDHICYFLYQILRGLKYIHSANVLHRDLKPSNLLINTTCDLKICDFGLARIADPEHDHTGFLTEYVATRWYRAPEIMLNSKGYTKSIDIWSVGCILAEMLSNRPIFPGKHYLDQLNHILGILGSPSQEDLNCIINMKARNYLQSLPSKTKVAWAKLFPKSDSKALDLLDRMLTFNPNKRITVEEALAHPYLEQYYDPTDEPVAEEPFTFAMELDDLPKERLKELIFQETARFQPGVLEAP
T1 sequence (P28482 whole entry, looked up): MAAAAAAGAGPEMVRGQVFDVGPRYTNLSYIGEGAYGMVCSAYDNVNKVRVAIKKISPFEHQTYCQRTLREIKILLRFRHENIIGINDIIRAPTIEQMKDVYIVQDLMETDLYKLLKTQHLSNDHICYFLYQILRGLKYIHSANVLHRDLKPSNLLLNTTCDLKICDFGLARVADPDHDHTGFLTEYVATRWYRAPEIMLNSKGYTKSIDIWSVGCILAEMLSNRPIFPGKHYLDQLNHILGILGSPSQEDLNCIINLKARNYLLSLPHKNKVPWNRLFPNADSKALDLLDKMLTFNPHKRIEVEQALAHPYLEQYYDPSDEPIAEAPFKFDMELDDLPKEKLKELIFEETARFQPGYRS

[2] = target: T1, Mitogen-activated protein kinase; ERK1/ERK2 (Homo sapiens); experiment: Activation of ERK1/2 signalling in human K562/ADR cells assessed as increase in cleaved caspase-3 expression at 0.1 uM after 48 hrs in presence of ERK1/2 inhibitor U0126 by Western blot analysis relative to control; assay type: cell-based
[3] = system: K562/Adr; experiment: Induction of apoptosis in human K562/ADR cells assessed as late apoptotic cells at 0.1 uM after 48 hrs by Annexin V-APC/7-AAD staining based flow cytometry (reference value: 3.89%); assay type: functional
[4] = system: K562/Adr; experiment: Cell cycle arrest in human K562/ADR cells assessed as accumulation in S phase at 0.1 uM after 48 hrs by propidium iodide staining based flow cytometry (reference value: 43.39 +/- 0.69%); assay type: functional
[5] = system: K562/Adr; experiment: Induction of apoptosis in human K562/ADR cells assessed as nuclear fragmentation at 0.05 to 0.1 uM after 48 hrs by Hoechst 33342 staining based fluorescent microscopic analysis; assay type: functional, cell-based
[6] = target: T1, Mitogen-activated protein kinase; ERK1/ERK2 (Homo sapiens); experiment: Induction of ERK1/2 phosphorylation in human K562/ADR cells at 0.1 uM after 48 hrs in presence of ERK1/2 inhibitor U0126 by Western blot analysis relative to control; assay type: cell-based
[7] = system: K562/Adr; experiment: Potency index, ratio of etoposide IC50 to compound IC50 for human K562/ADR cells; assay type: functional
[8] = system: K562/Adr; experiment: Antiproliferative activity against human K562/ADR cells after 72 hrs by CCK8 assay; assay type: functional, cell-based
[9] = target: T1, Mitogen-activated protein kinase; ERK1/ERK2 (Homo sapiens); experiment: Activation of ERK1/2 signalling in human K562/ADR cells assessed as suppression of CyclinB1 protein expression at 0.1 uM after 48 hrs in presence of ERK1/2 inhibitor U0126 by Western blot analysis relative to control; assay type: cell-based
[10] = system: K562; experiment: Potency index, ratio of adriamycin IC50 to compound IC50 for human K562 cells; assay type: functional
[11] = target: T1, Mitogen-activated protein kinase; ERK1/ERK2 (Homo sapiens); experiment: Activation of ERK1/2 signalling in human K562/ADR cells assessed as increase in cleaved caspase-9 expression at 0.1 uM after 48 hrs by Western blot analysis relative to control; assay type: cell-based
[12] = system: K562/Adr; experiment: Effect on total ERK1/2 protein expression level in human K562/ADR cells at 0.1 uM after 48 hrs in presence of ERK1/2 inhibitor U0126 by Western blot analysis relative to control; assay type: ADME, cell-based
[13] = target: T1, Mitogen-activated protein kinase; ERK1/ERK2 (Homo sapiens); experiment: Activation of ERK1/2 signalling in human K562/ADR cells assessed as suppression of P-gp expression at 0.05 uM after 48 hrs by Western blot analysis relative to control; assay type: cell-based
[14] = system: K562/Adr; experiment: Potency index, ratio of adriamycin IC50 to compound IC50 for human K562/ADR cells; assay type: functional
[15] = target: T1, Mitogen-activated protein kinase; ERK1/ERK2 (Homo sapiens); experiment: Induction of ERK1/2 phosphorylation in human K562/ADR cells at 0.1 uM after 48 hrs by Western blot analysis relative to control; assay type: cell-based
[16] = system: K562; experiment: Resistance factor, ratio of IC50 for human K562/ADR cells to IC50 for human K562 cells; assay type: functional
[17] = target: T1, Mitogen-activated protein kinase; ERK1/ERK2 (Homo sapiens); experiment: Activation of ERK1/2 signalling in human K562/ADR cells assessed as suppression of P-gp expression at 0.1 uM after 48 hrs by Western blot analysis relative to control; assay type: cell-based
[18] = system: K562/Adr; experiment: Induction of apoptosis in human K562/ADR cells assessed as early apoptotic cells at 0.1 uM after 48 hrs by Annexin V-APC/7-AAD staining based flow cytometry (reference value: 1.99%); assay type: functional
[19] = system: K562/Adr; experiment: Induction of apoptosis in human K562/ADR cells assessed as live cells at 0.1 uM after 48 hrs by Annexin V-APC/7-AAD staining based flow cytometry (reference value: 91.65%); assay type: functional
[20] = system: K562/Adr; experiment: Effect on total ERK1/2 protein expression level in human K562/ADR cells at 0.05 uM after 48 hrs by Western blot analysis relative to control; assay type: ADME, cell-based
[21] = system: K562; experiment: Potency index, ratio of etoposide IC50 to compound IC50 for human K562 cells; assay type: functional
[22] = target: T1, Mitogen-activated protein kinase; ERK1/ERK2 (Homo sapiens); experiment: Activation of ERK1/2 signalling in human K562/ADR cells assessed as suppression of CDK1 protein expression at 0.1 uM after 48 hrs in presence of ERK1/2 inhibitor U0126 by Western blot analysis relative to control; assay type: cell-based
[23] = target: T1, Mitogen-activated protein kinase; ERK1/ERK2 (Homo sapiens); experiment: Activation of ERK1/2 signalling in human K562/ADR cells assessed as suppression of P-gp expression at 0.1 uM after 48 hrs in presence of ERK1/2 inhibitor U0126 by Western blot analysis relative to control; assay type: cell-based
[24] = system: K562; experiment: Antiproliferative activity against human K562 cells after 72 hrs by CCK8 assay; assay type: functional, cell-based; conditions: K562, 72 h
[25] = target: T1, Mitogen-activated protein kinase; ERK1/ERK2 (Homo sapiens); experiment: Activation of ERK1/2 signalling in human K562/ADR cells assessed as suppression of CyclinB1 protein expression at 0.1 uM after 48 hrs by Western blot analysis relative to control; assay type: cell-based
[26] = system: K562/Adr; experiment: Induction of apoptosis in human K562/ADR cells assessed as necrotic cells at 0.1 uM after 48 hrs by Annexin V-APC/7-AAD staining based flow cytometry (reference value: 2.47%); assay type: functional
[27] = system: K562/Adr; experiment: Induction of apoptosis in human K562/ADR cells assessed as late apoptotic cells at 0.05 uM after 48 hrs by Annexin V-APC/7-AAD staining based flow cytometry (reference value: 3.89%); assay type: functional
[28] = target: T1, Mitogen-activated protein kinase; ERK1/ERK2 (Homo sapiens); experiment: Activation of ERK1/2 signalling in human K562/ADR cells assessed as suppression of CDK1 protein expression at 0.05 uM after 48 hrs by Western blot analysis relative to control; assay type: cell-based
[29] = target: T1, Mitogen-activated protein kinase; ERK1/ERK2 (Homo sapiens); experiment: Activation of ERK1/2 signalling in human K562/ADR cells assessed as increase in cleaved caspase-3 expression at 0.1 uM after 48 hrs by Western blot analysis relative to control; assay type: cell-based
[30] = target: T1, Mitogen-activated protein kinase; ERK1/ERK2 (Homo sapiens); experiment: Activation of ERK1/2 signalling in human K562/ADR cells assessed as increase in cleaved caspase-8 expression at 0.1 uM after 48 hrs by Western blot analysis relative to control; assay type: cell-based
[31] = system: K562/Adr; experiment: Induction of apoptosis in human K562/ADR cells assessed as necrotic cells at 0.05 uM after 48 hrs by Annexin V-APC/7-AAD staining based flow cytometry (reference value: 2.47%); assay type: functional
[32] = system: K562/Adr; experiment: Cell cycle arrest in human K562/ADR cells assessed as accumulation in S phase at 0.05 uM after 48 hrs by propidium iodide staining based flow cytometry (reference value: 43.39 +/- 0.69%); assay type: functional
[33] = target: T1, Mitogen-activated protein kinase; ERK1/ERK2 (Homo sapiens); experiment: Activation of ERK1/2 signalling in human K562/ADR cells assessed as increase in cleaved caspase-3 expression at 0.05 uM after 48 hrs by Western blot analysis relative to control; assay type: cell-based
[34] = target: T1, Mitogen-activated protein kinase; ERK1/ERK2 (Homo sapiens); experiment: Activation of ERK1/2 signalling in human K562/ADR cells assessed as suppression of CyclinB1 protein expression at 0.05 uM after 48 hrs by Western blot analysis relative to control; assay type: cell-based
[35] = target: T1, Mitogen-activated protein kinase; ERK1/ERK2 (Homo sapiens); experiment: Activation of ERK1/2 signalling in human K562/ADR cells assessed as increase in cleaved caspase-8 expression at 0.1 uM after 48 hrs in presence of ERK1/2 inhibitor U0126 by Western blot analysis relative to control; assay type: cell-based

COc1cc([C@@H]2c3cc4c(cc3[C@H](OC(=O)c3cccc(Br)n3)[C@H]3COC(=O)[C@H]23)OCO4)cc(OC)c1OC
fold change (FC) [1]: 0.49
fold change (FC) [2]: 0.52
Activity [3]: 44.02%
Activity [4]: 64.17%
Activity [5]: Active
fold change (FC) [6]: 0.07
Ratio IC50 [7]: 44.02
pIC50 [8]: 7.34
fold change (FC) [9]: 0.2
Ratio IC50 [10]: 8.8
fold change (FC) [11]: 0.75
fold change (FC) [12]: 0.65
fold change (FC) [13]: 0.26
Ratio IC50 [14]: 408.23
fold change (FC) [15]: 0.71
Ratio IC50 [16]: 1.84
fold change (FC) [17]: 0.1
Activity [18]: 9.15%
Activity [19]: 41.01%
fold change (FC) [20]: 0.94
Ratio IC50 [21]: 16.52
fold change (FC) [22]: 0.71
fold change (FC) [23]: 0.31
pIC50 [24]: 7.60
fold change (FC) [25]: 0.15
Activity [26]: 5.82%
Activity [27]: 18.84%
fold change (FC) [28]: 0.81
fold change (FC) [29]: 0.64
fold change (FC) [30]: 0.57
Activity [31]: 6.37%
Activity [32]: 53.74%
fold change (FC) [33]: 0.47
fold change (FC) [34]: 0.25
fold change (FC) [35]: 0.4
